One assay concerns the target T1, HiBit-BRM fusion protein (Homo sapiens, UniProt P51531).
T1 construct: expressed in transfected cells
Nature of the assay: HiBiT-BRM cell-based degradation assay (Nano-Glo HiBiT Lytic Detection, 24 h). Conditions: HeLa cells expressing HiBiT-BRM; for DC50: read-out: BRM HiBit Degradation IC50; for BRM HiBit Degradation Maximum measured: top dose 30 μM. A digest of the protocol: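 HeLa cells stably expressing HiBiT-BRM were treated for 24 h with compounds (10-point 3-fold dilutions, 30 μM final top dose, in duplicate). HiBiT was detected by lytic LgBiT complementation luminescence. % degradation was normalized to DMSO (high control) and 2 μM of a reference BRM/BRG1 degrader (low control).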

Assay [1] deals with T2, HiBit-BRG1 fusion protein (Homo sapiens, UniProt P51532).
T2 construct: expressed in transfected cells
The experiment in a line: HiBiT-BRG1 cell-based degradation assay (Nano-Glo HiBiT Lytic Detection, 24 h). Particulars: HeLa cells expressing HiBit-BRG1 and LgBit; for DC50: read-out: BRG1 HiBit Degradation IC50; for Dmax: HeLa, top dose 30 μM, read-out: BRG1 HiBit Degradation Maximum measured. The essentials: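 Stable HeLa line expressing HiBiT-BRG1 and LgBiT, seeded at 5000 cells/well; luminescence read after lytic Nano-Glo HiBiT reagent and 10 min shaking at RT. % degradation normalised between DMSO (high control) and 2 μM reference BRM/BRG1 degrader (low control).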

T1 sequence (P51531 whole entry, the tested form may be a part): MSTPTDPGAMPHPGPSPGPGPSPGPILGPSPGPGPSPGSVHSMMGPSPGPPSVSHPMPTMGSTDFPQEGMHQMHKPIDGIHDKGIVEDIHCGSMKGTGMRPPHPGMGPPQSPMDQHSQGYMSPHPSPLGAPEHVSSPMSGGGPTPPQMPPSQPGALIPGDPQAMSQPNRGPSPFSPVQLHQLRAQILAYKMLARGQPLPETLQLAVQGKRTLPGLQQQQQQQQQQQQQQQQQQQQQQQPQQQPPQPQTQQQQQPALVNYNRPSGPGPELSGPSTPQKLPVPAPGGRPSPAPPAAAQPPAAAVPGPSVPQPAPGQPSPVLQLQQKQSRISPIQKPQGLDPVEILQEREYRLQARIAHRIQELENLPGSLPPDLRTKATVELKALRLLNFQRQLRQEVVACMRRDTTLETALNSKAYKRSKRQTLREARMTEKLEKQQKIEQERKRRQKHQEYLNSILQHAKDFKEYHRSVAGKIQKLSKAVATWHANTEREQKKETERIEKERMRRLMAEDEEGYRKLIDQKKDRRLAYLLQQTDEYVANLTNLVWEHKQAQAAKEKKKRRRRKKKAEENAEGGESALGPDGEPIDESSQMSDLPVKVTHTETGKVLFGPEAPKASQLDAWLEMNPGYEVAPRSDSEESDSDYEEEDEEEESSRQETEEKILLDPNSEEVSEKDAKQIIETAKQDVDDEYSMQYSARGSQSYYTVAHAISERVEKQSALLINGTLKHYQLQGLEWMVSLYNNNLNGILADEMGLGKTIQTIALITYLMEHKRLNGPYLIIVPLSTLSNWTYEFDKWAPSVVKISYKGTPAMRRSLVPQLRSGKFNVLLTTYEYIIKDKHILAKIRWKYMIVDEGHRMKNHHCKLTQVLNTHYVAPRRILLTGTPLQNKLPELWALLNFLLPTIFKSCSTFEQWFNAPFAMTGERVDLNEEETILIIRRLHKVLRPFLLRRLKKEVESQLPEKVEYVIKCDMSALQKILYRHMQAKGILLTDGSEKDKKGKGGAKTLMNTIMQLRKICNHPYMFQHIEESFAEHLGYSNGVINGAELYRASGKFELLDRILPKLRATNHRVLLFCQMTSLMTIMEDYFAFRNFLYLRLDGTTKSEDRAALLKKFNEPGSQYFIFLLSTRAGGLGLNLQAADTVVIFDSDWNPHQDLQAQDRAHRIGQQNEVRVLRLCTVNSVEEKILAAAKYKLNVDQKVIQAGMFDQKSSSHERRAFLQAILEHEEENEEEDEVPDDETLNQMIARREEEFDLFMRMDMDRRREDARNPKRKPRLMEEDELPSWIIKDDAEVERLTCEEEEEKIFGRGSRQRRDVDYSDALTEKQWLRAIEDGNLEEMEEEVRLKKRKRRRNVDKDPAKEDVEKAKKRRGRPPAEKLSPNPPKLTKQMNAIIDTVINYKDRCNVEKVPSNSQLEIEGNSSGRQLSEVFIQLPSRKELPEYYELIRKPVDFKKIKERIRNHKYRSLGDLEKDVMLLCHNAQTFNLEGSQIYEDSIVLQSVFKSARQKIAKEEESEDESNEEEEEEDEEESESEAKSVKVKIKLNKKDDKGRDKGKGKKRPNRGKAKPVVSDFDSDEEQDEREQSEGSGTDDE
T2 sequence (P51532 whole entry, the tested form may be a part): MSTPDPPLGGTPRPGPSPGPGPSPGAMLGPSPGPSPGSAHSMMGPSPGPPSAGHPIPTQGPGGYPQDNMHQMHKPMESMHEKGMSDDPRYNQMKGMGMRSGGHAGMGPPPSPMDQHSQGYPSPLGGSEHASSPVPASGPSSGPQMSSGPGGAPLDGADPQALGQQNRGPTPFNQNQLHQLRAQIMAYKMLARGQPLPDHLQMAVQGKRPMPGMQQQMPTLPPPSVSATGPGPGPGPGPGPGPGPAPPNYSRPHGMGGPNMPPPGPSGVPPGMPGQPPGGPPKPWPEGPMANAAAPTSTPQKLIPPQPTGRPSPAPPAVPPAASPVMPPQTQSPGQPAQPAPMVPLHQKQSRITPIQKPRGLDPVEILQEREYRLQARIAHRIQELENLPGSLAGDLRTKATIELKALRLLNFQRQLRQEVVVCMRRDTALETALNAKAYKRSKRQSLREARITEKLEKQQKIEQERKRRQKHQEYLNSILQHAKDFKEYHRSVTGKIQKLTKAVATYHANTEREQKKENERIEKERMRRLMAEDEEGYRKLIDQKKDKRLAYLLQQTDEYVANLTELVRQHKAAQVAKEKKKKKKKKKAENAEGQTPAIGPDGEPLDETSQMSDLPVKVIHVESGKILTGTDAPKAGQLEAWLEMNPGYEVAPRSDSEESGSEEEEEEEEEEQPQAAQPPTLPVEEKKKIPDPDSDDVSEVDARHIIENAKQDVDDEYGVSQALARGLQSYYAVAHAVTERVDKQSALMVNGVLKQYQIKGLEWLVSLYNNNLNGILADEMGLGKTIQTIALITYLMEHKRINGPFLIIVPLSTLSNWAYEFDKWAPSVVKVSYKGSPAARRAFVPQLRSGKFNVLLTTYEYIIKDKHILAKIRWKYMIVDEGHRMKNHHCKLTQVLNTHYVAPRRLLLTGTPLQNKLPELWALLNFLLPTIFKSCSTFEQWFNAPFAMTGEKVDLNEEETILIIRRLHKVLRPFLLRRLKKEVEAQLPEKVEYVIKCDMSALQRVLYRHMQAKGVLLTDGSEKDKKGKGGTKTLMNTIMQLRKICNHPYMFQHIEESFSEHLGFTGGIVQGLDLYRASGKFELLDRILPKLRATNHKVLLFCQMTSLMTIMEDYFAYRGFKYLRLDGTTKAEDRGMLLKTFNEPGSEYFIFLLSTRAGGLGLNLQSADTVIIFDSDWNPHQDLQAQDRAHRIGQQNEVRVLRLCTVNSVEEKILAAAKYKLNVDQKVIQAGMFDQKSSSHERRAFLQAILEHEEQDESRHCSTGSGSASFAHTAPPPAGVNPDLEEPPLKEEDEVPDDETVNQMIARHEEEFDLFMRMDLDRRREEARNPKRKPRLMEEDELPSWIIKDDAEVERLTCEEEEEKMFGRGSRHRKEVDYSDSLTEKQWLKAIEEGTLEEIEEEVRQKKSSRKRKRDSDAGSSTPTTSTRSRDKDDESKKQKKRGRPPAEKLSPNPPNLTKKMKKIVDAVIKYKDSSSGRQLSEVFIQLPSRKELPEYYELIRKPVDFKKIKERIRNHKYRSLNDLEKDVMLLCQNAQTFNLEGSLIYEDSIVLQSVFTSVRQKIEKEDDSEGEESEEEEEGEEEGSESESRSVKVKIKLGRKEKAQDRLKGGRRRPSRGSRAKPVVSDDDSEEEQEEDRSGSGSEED

Turning to `CS(=O)(=O)n1ccc(C(=O)N[C@@H](CCOCCCC(=O)N2CC(CN3CCN(c4ccc5c(c4)C(=O)N(C4CCC(=O)NC4=O)C5=O)CC3)C2)C(=O)Nc2nc(-c3ccccc3)cs2)c1` (stereo partly drawn) [Compound 221, (2S)-4-[4-[3-([4-[2-(2,6-dioxopiperidin-3-yl)-1,3-dioxoisoindol-5-yl]piperazin-1-yl]methyl)azetidin-1-yl]-4-oxobutoxy]-2-[(1-methanesulfonylpyrrol-3-yl)formamido]-N-(4-phenyl-1,3-thiazol-2-yl)butanamide], at HiBit-BRM fusion protein, the DC50 was > 10 µM and the “BRM HiBit Degradation Maximum measured” value is listed as “C (‘C’ = Maximum degradation <50%)”. Moreover, in assay [1], the DC50 was > 10 µM and the Dmax was < 50%.

Consider `CS(=O)(=O)n1ccc(C(=O)N[C@@H](CCOCCCC(=O)N2CC3(CCN(CCCNc4ccc5c(c4)C(=O)N(C4CCC(=O)NC4=O)C5=O)CC3)C2)C(=O)Nc2nc(-c3ccccc3)cs2)c1` (stereo partly drawn) [Compound 222, (2S)-4-[4-[7-(3-[[2-(2,6-dioxopiperidin-3-yl)-1,3-dioxoisoindol-5-yl]amino]propyl)-2,7-diazaspiro[3.5]nonan-2-yl]-4-oxobutoxy]-2-[(1-methanesulfonylpyrrol-3-yl)formamido]-N-(4-phenyl-1,3-thiazol-2-yl)butanamide; formic acid], for which, on HiBit-BRM fusion protein, the DC50 is > 10 µM and the “BRM HiBit Degradation Maximum measured” value is given as “C (‘C’ = Maximum degradation <50%)”. Further, in assay [1], the DC50 is > 10 µM and the Dmax was < 50%.

Turning to `CS(=O)(=O)n1ccc(C(=O)N[C@@H](CCOCCCC(=O)NCCOCCOCCNC(=O)COc2cccc3c2C(=O)N(C2CCC(=O)NC2=O)C3=O)C(=O)Nc2nc(-c3ccccc3)cs2)c1` (stereo partly drawn) [Compound 223, (2S)-4-[3-[(2-[2-[2-(2-[[2-(2,6-dioxopiperidin-3-yl)-1,3-dioxoisoindol-4-yl]oxy]acetamido)ethoxy]ethoxy]ethyl)carbamoyl]propoxy]-2-[(1-methanesulfonylpyrrol-3-yl)formamido]-N-(4-phenyl-1,3-thiazol-2-yl)butanamide], at HiBit-BRM fusion protein, the DC50 is > 10 µM and the “BRM HiBit Degradation Maximum measured” value is “C (‘C’ = Maximum degradation <50%)”. In assay [1], the DC50 was > 10 µM and the Dmax was < 50%.

For the compound `CS(=O)(=O)n1ccc(C(=O)N[C@@H](CCOCCCC(=O)N2CC(CCOc3cccc4c3C(=O)N(C3CCC(=O)NC3=O)C4=O)C2)C(=O)Nc2nc(-c3ccccc3)cs2)c1` (stereo partly drawn) [Compound 224, (2S)-4-[4-[3-(2-[[2-(2,6-dioxopiperidin-3-yl)-1,3-dioxoisoindol-4-yl]oxy]ethyl)azetidin-1-yl]-4-oxobutoxy]-2-[(1-methanesulfonylpyrrol-3-yl)formamido]-N-(4-phenyl-1,3-thiazol-2-yl)butanamide], on HiBit-BRM fusion protein, the DC50 is > 10 µM and the “BRM HiBit Degradation Maximum measured” value is “C (‘C’ = Maximum degradation <50%)”. In assay [1], the DC50 is > 10 µM and the Dmax was < 50%.

As to `Cc1ncsc1-c1ccc(CNC(=O)[C@@H]2C[C@@H](O)CN2C(=O)[C@@H](NC(=O)COCCOCCOCCNC(=O)CCCOC[C@H](NC(=O)c2ccn(S(C)(=O)=O)c2)C(=O)Nc2nc(-c3ccccc3)cs2)C(C)(C)C)cc1` [Compound 225, (2S,4R)-4-hydroxy-1-[(2S)-2-(2-[2-[2-(2-[4-[(2S)-2-[(1-methanesulfonylpyrrol-3-yl)formamido]-2-[(4-phenyl-1,3-thiazol-2-yl)carbamoyl]ethoxy]butanamido]ethoxy)ethoxy]ethoxy]acetamido)-3,3-dimethylbutanoyl]-N-[[4-(4-methyl-1,3-thiazol-5-yl)phenyl]methyl]pyrrolidine-2-carboxamide], at HiBit-BRM fusion protein, the DC50 is > 10 µM and the “BRM HiBit Degradation Maximum measured” value is recorded as “C (‘C’ = Maximum degradation <50%)”. Also, in assay [1], the DC50 is > 10 µM and the Dmax is < 50%.

Turning to `Cc1ncsc1-c1ccc(CNC(=O)[C@@H]2C[C@@H](O)CN2C(=O)[C@@H](NC(=O)CCCCCNC(=O)CCCOC[C@H](NC(=O)c2ccn(S(C)(=O)=O)c2)C(=O)Nc2nc(-c3ccccc3)cs2)C(C)(C)C)cc1` [Compound 226, (2S,4R)-4-hydroxy-1-[(2S)-2-(6-[4-[(2S)-2-[(1-methanesulfonylpyrrol-3-yl)formamido]-2-[(4-phenyl-1,3-thiazol-2-yl)carbamoyl]ethoxy]butanamido]hexanamido)-3,3-dimethylbutanoyl]-N-[[4-(4-methyl-1,3-thiazol-5-yl)phenyl]methyl]pyrrolidine-2-carboxamide], at HiBit-BRM fusion protein, the DC50 was > 10 µM and the “BRM HiBit Degradation Maximum measured” value is given as “C (‘C’ = Maximum degradation <50%)”. In assay [1], the DC50 was > 10 µM and the Dmax is < 50%.

As to `Cc1ncsc1-c1ccc(CNC(=O)[C@@H]2C[C@@H](O)CN2C(=O)[C@@H](NC(=O)CCCCCCCNC(=O)CCCOC[C@H](NC(=O)c2ccn(S(C)(=O)=O)c2)C(=O)Nc2nc(-c3ccccc3)cs2)C(C)(C)C)cc1` [Compound 227, (2S,4R)-4-hydroxy-1-[(2S)-2-(8-[4-[(2S)-2-[(1-methanesulfonylpyrrol-3-yl)formamido]-2-[(4-phenyl-1,3-thiazol-2-yl)carbamoyl]ethoxy]butanamido]octanamido)-3,3-dimethylbutanoyl]-N-[[4-(4-methyl-1,3-thiazol-5-yl)phenyl]methyl]pyrrolidine-2-carboxamide], on HiBit-BRM fusion protein, the DC50 was > 10 µM and the “BRM HiBit Degradation Maximum measured” value is “C (‘C’ = Maximum degradation <50%)”. Also, in assay [1], the DC50 was > 10 µM and the Dmax was < 50%.

For `CS(=O)(=O)n1ccc(C(=O)N[C@@H](COCCCC(=O)NCCOc2ccc3c(c2)C(=O)N(C2CCC(=O)NC2=O)C3=O)C(=O)Nc2nc(-c3ccccc3)cs2)c1` (stereo partly shown) [Compound 228], on HiBit-BRM fusion protein, the DC50 is > 10 µM and the “BRM HiBit Degradation Maximum measured” value is listed as “C (‘C’ = Maximum degradation <50%)”. For the same compound, in assay [1], the DC50 is > 10 µM and the Dmax is < 50%.

As to `CS(=O)(=O)n1ccc(C(=O)N[C@@H](COCCCC(=O)NCCCCNc2ccc3c(c2)C(=O)N(C2CCC(=O)NC2=O)C3=O)C(=O)Nc2nc(-c3ccccc3)cs2)c1` (stereo partly drawn) [Compound 229, N-(4-[[2-(2,6-dioxopiperidin-3-yl)-1,3-dioxoisoindol-5-yl]amino]butyl)-4-[(2S)-2-[(1-methanesulfonylpyrrol-3-yl)formamido]-2-[(4-phenyl-1,3-thiazol-2-yl)carbamoyl]ethoxy]butanamide], on HiBit-BRM fusion protein, the DC50 is > 10 µM and the “BRM HiBit Degradation Maximum measured” value was “C (‘C’ = Maximum degradation <50%)”. In assay [1], the DC50 was > 10 µM and the Dmax was < 50%.

In the case of `CS(=O)(=O)n1ccc(C(=O)N[C@@H](COCCCC(=O)NCCCCCCNc2ccc3c(c2)C(=O)N(C2CCC(=O)NC2=O)C3=O)C(=O)Nc2nc(-c3ccccc3)cs2)c1` (stereo partly drawn) [Compound 230, N-(6-[[2-(2,6-dioxopiperidin-3-yl)-1,3-dioxoisoindol-5-yl]amino]hexyl)-4-[(2S)-2-[(1-methanesulfonylpyrrol-3-yl)formamido]-2-[(4-phenyl-1,3-thiazol-2-yl)carbamoyl]ethoxy]butanamide], at HiBit-BRM fusion protein, the DC50 was > 10 µM and the “BRM HiBit Degradation Maximum measured” value is reported as “C (‘C’ = Maximum degradation <50%)”. In addition, in assay [1], the DC50 is > 10 µM and the Dmax was < 50%.

With `CS(=O)(=O)n1ccc(C(=O)N[C@@H](COCc2ccc(C(=O)N3CCN(CC4CN(c5ccc6c(c5)C(=O)N(C5CCC(=O)NC5=O)C6=O)C4)CC3)cc2)C(=O)Nc2nc(-c3ccccc3)cs2)c1.O=CO` (stereo partly drawn) [Compound 231, (2S)-3-([4-[4-([1-[2-(2,6-dioxopiperidin-3-yl)-1,3-dioxoisoindol-5-yl]azetidin-3-yl]methyl)piperazine-1-carbonyl]phenyl]methoxy)-2-[(1-methanesulfonylpyrrol-3-yl)formamido]-N-(4-phenyl-1,3-thiazol-2-yl)propanamide; formic acid], at HiBit-BRM fusion protein, the DC50 was > 10 µM and the “BRM HiBit Degradation Maximum measured” value was “C (‘C’ = Maximum degradation <50%)”. For the same compound, in assay [1], the DC50 was > 10 µM and the Dmax was < 50%.

As for `Cc1ncsc1-c1ccc(CNC(=O)[C@@H]2C[C@@H](O)CN2C(=O)[C@@H](NC(=O)CCCCCNC(=O)c2ccc(COC[C@H](NC(=O)c3ccn(S(C)(=O)=O)c3)C(=O)Nc3nc(-c4ccccc4)cs3)cc2)C(C)(C)C)cc1` [Compound 232, (2S,4R)-4-hydroxy-1-[(2S)-2-[6-[(4-[[(2S)-2-[(1-methanesulfonylpyrrol-3-yl)formamido]-2-[(4-phenyl-1,3-thiazol-2-yl)carbamoyl]ethoxy]methyl]phenyl)formamido]hexanamido]-3,3-dimethylbutanoyl]-N-[[4-(4-methyl-1,3-thiazol-5-yl)phenyl]methyl]pyrrolidine-2-carboxamide], at HiBit-BRM fusion protein, the DC50 is > 10 µM and the “BRM HiBit Degradation Maximum measured” value is given as “C (‘C’ = Maximum degradation <50%)”. Moreover, in assay [1], the DC50 is > 10 µM and the Dmax is < 50%.

For `CS(=O)(=O)n1ccc(C(=O)N[C@@H](COCc2ccc(C(=O)N3CCN(CCCCCOc4ccc5c(c4)C(=O)N(C4CCC(=O)NC4=O)C5=O)CC3)cc2)C(=O)Nc2nc(-c3ccccc3)cs2)c1` (stereo partly drawn) [Compound 233, (2S)-3-([4-[4-(5-[[2-(2,6-dioxopiperidin-3-yl)-1,3-dioxoisoindol-5-yl]oxy]pentyl)piperazine-1-carbonyl]phenyl]methoxy)-2-[(1-methanesulfonylpyrrol-3-yl)formamido]-N-(4-phenyl-1,3-thiazol-2-yl)propanamide], on HiBit-BRM fusion protein, the DC50 was > 10 µM and the “BRM HiBit Degradation Maximum measured” value is listed as “C (‘C’ = Maximum degradation <50%)”. For the same compound, in assay [1], the DC50 was 0.1 to 1 µM and the Dmax fell in the range of 50 to 75%.

The record behind these values is patent US12662479B2 (Foghorn Therapeutics Inc., priority 2020, dated 2026).
